Patent publication US7829754B2, “Method of cleaning heavy metals-containing soil” (Chubu Electric Power Co., Inc., priority 2004, dated 2010)
Where two headings read alike, the source gives them in different places.

Legend:
Fagopyrum esculentum [1] = test: Fagopyrum esculentum growth situation after addition of chelating agent
Method: 3) The soil B (3 kg) and the contrast section soil (4.3 kg) which had been passed through a sieve (2 mm) were mixed with urea (N: 69 mg/kg soil), calcium superphosphate (P: 75 mg/kg soil), potassium chloride (K: 72 mg/kg soil), and magnesia lime (Mg: 67 mg/kg soil), and sufficiently stirred. 4) The test soil was filled into a Wagnel pot (1/5000a), and a plant was seeded (3 pits/pot, 3 grains/pit). 5) Four to five days after germination, the plant was thinned out to 3 individuals/pot. 6) Cultivation in a gross chamber (Environmental Condition) Temperature: 25° C.×12 h (8:00-20:00), 20° C.×12 h (20:00-8:00) Humidity: 60% Illumination: light condition (8:00-20:00), dark condition (20:00-8:00) Illuminance: 98001×, 180μ mmol˜m^−2·s^−1 7) Aspersion was performed at 100 ml/pot every day. 8) During a test term, a position of a pot was changed four times. 9) Individuals which were about to fall were induced by a support post. 10) One week before harvesting, a chelating agent at each concentration was added to the soil B. An addition amount was 300 ml/pot, and the chelating agent was carefully added to a surface of the soil so that the chelating agent was not contacted with the plant. On the day before addition of the chelating agent and on the day of addition, aspersion was not performed. […] 12) Repeated cycles in all sections were 3 (3 pots/test section).

Fagopyrum esculentum [2] = settings: for Leaf dry weight / Stem dry weight / Stem lead concentration / Terrestrial dry weight / Terrestrial part lead accumulation amount / Terrestrial part lead concentration: soil B; for Leaf lead concentration: soil B (lead 13032 mg/kg), added one week before harvesting
Method: A lead concentration in a soil or a plant body was analyzed using ICP-AES (inductively coupled plasma-atomic emission spectrometry) regarding a sample obtained by adding nitric acid and degrading this with a microwave.
A cultivating experiment was conducted as follows: in which Fagopyrum esculentum and Brassica juncca were cultivated in a lead-containing soil filled in a Wagnel pot, a chelating agent was further added to the soil, and a difference in a lead accumulating amount depending on the cultivating condition was examined.
In addition, considering influence on plants and environment such as a salt concentration damage, 1, 5, 10 and 20 mmol kg^−1 soil of chemical reagents were adopted as an addition concentration, and 300 ml/pot (soil 3 kg) was provided as an addition amount.
1) Test plant: Fagopyrum esculentum, trade name (Milkyway), Brassica juncea
2) Test soil: Soil B (sampled from an old firing range site, soil lead concentration 13032 mg/kg), contrast sample (mountain sand in Gifu Prefecture of Japan, soil lead concentration 21 mg/kg)

[3] = format: physicochemical
Method: <Experiment 1. Test of Comparing Lead Dissolving Out Ability of Chelating Agent>
In order to study a kind of a chelating agent to be added to a contaminated soil, the lead dissolving out abilities of 26 types of chelating agents (chelate reagents) were compared (FIG. 2).
2) Chelating agent: Each chelating agent of 100 mmol·dm^−3 and pH 5.8 was prepared.
3) Five grams of 1) the subject soil and 50 ml of 2) the chelating agent were put into to a 100 ml vessel, and shaken (200 times/min) at 20° C. for 6 hours. Repeated cycle was 3.
4) For comparison, a contrast section was prepared, in which desalted water was added instead of the chelating agent in the 3).
5) After shaking, the sample after filtration was centrifuged at 15000 rpm for 5 minutes, and the supernatant liquid was further centrifuged again under the same condition.
6) From the separated supernatant liquid, a lead concentration was measured with an inductively coupled high frequency plasma spectrometry (ICP) device.

[4] = four days after addition, 1 mmol/kg soil
[5] = four days after addition, 5 mmol/kg soil
[6] = four days after addition, 10 mmol/kg soil
[7] = four days after addition, 20 mmol/kg soil
[8] = chelating agent 10 mmol/kg soil
[9] = chelating agent 20 mmol/kg soil
[10] = per unit area, calculated, chelating agent 1 mmol/kg soil
[11] = per unit area, calculated, chelating agent 5 mmol/kg soil
[12] = per unit area, calculated, chelating agent 10 mmol/kg soil
[13] = per unit area, calculated, chelating agent 20 mmol/kg soil
[14] = chelating agent 100 mmol·dm^−3, pH 5.8, Soil A, shaken at 20° C. for 6 hours, FIG. 2

O=C([O-])CC(O)(CC(=O)[O-])C(=O)[O-].[Na+].[Na+].[Na+] [Sodium citrate, sodium citrate]
Discoloration of leaf (number of individuals for which symptom was observed) (Fagopyrum esculentum [1]; [4]): 5
Discoloration of leaf (number of individuals for which symptom was observed) (Fagopyrum esculentum [1]; [5]): 2
Discoloration of leaf (number of individuals for which symptom was observed) (Fagopyrum esculentum [1]; [6]): 4
Leaf drop (number of individuals for which symptom was observed) (Fagopyrum esculentum [1]; [6]): 2
Wilting of leaf (number of individuals for which symptom was observed) (Fagopyrum esculentum [1]; [6]): 4
Discoloration of leaf (number of individuals for which symptom was observed) (Fagopyrum esculentum [1]; [7]): 5
Wilting of leaf (number of individuals for which symptom was observed) (Fagopyrum esculentum [1]; [7]): 6
Leaf dry weight (Fagopyrum esculentum [2]; chelating agent 1 mmol/kg soil): 0.9090 g/plant
Stem dry weight (Fagopyrum esculentum [2]; chelating agent 1 mmol/kg soil): 1.9892 g/plant
Stem lead concentration (Fagopyrum esculentum [2]; chelating agent 1 mmol/kg soil): 1815 mg/kg
Terrestrial dry weight (Fagopyrum esculentum [2]; chelating agent 1 mmol/kg soil): 2.8982 g/plant
Terrestrial part lead accumulation amount (Fagopyrum esculentum [2]; chelating agent 1 mmol/kg soil): 0.0121 g/plant
Terrestrial part lead concentration (Fagopyrum esculentum [2]; chelating agent 1 mmol/kg soil): 4169 mg/kg
Leaf lead concentration (Fagopyrum esculentum [2]; chelating agent 1 mmol/kg soil): 9320 mg/kg
Leaf dry weight (Fagopyrum esculentum [2]; chelating agent 5 mmol/kg soil): 1.0308 g/plant
Stem dry weight (Fagopyrum esculentum [2]; chelating agent 5 mmol/kg soil): 1.6837 g/plant
Stem lead concentration (Fagopyrum esculentum [2]; chelating agent 5 mmol/kg soil): 1671 mg/kg
Terrestrial dry weight (Fagopyrum esculentum [2]; chelating agent 5 mmol/kg soil): 2.7145 g/plant
Terrestrial part lead accumulation amount (Fagopyrum esculentum [2]; chelating agent 5 mmol/kg soil): 0.0101 g/plant
Terrestrial part lead concentration (Fagopyrum esculentum [2]; chelating agent 5 mmol/kg soil): 3732 mg/kg
Leaf lead concentration (Fagopyrum esculentum [2]; chelating agent 5 mmol/kg soil): 7099 mg/kg
Leaf dry weight (Fagopyrum esculentum [2]; [8]): 0.7356 g/plant
Stem dry weight (Fagopyrum esculentum [2]; [8]): 1.7669 g/plant
Stem lead concentration (Fagopyrum esculentum [2]; [8]): 1524 mg/kg
Terrestrial dry weight (Fagopyrum esculentum [2]; [8]): 2.5025 g/plant
Terrestrial part lead accumulation amount (Fagopyrum esculentum [2]; [8]): 0.0080 g/plant
Terrestrial part lead concentration (Fagopyrum esculentum [2]; [8]): 3191 mg/kg
Leaf lead concentration (Fagopyrum esculentum [2]; [8]): 7195 mg/kg
Leaf dry weight (Fagopyrum esculentum [2]; [9]): 0.8797 g/plant
Stem dry weight (Fagopyrum esculentum [2]; [9]): 1.9099 g/plant
Stem lead concentration (Fagopyrum esculentum [2]; [9]): 2286 mg/kg
Terrestrial dry weight (Fagopyrum esculentum [2]; [9]): 2.7896 g/plant
Terrestrial part lead accumulation amount (Fagopyrum esculentum [2]; [9]): 0.0134 g/plant
Terrestrial part lead concentration (Fagopyrum esculentum [2]; [9]): 4806 mg/kg
Leaf lead concentration (Fagopyrum esculentum [2]; [9]): 10270 mg/kg
Terrestrial part lead accumulation amount (Fagopyrum esculentum [2]; [10]): 1.82 g/m^2
Terrestrial part lead accumulation amount (Fagopyrum esculentum [2]; [11]): 1.52 g/m^2
Terrestrial part lead accumulation amount (Fagopyrum esculentum [2]; [12]): 1.20 g/m^2
Terrestrial part lead accumulation amount (Fagopyrum esculentum [2]; [13]): 2.01 g/m^2
lead dissolving out ability [3, 14]: not so much higher than the aforementioned biodegradable chelating agents
lead dissolving out ability ([3]; pH 5.8): high lead dissolving out ability

O=C(O)CC(O)(CC(=O)O)C(=O)O [citric acid]
lead dissolving out ability ([3]; pH 5.8): high lead dissolving out ability

disodium ethylenediamine tetraacetate [EDTA · 2Na, reference compound]
Discoloration of leaf (number of individuals for which symptom was observed) (Fagopyrum esculentum [1]; [4]): 3
Discoloration of leaf (number of individuals for which symptom was observed) (Fagopyrum esculentum [1]; [5]): 4
Leaf drop (number of individuals for which symptom was observed) (Fagopyrum esculentum [1]; [5]): 1
Wilting of leaf (number of individuals for which symptom was observed) (Fagopyrum esculentum [1]; [5]): 1
Discoloration of leaf (number of individuals for which symptom was observed) (Fagopyrum esculentum [1]; [6]): 6
Wilting of leaf (number of individuals for which symptom was observed) (Fagopyrum esculentum [1]; [6]): 2
Discoloration of flower (number of individuals for which symptom was observed) (Fagopyrum esculentum [1]; [7]): 9
Discoloration of leaf (number of individuals for which symptom was observed) (Fagopyrum esculentum [1]; [7]): 9
Leaf drop (number of individuals for which symptom was observed) (Fagopyrum esculentum [1]; [7]): 2
Wilting of leaf (number of individuals for which symptom was observed) (Fagopyrum esculentum [1]; [7]): 9
yellow leaves, spotting and discoloration of leaves, and discoloration of a flower (Fagopyrum esculentum [1]; [7]): confirmed in all individuals
discoloration of leaves (Fagopyrum esculentum [1]; two days after addition, 20 mmol/kg soil): discoloration of leaves was observed
addition effect on lead concentration in stems (Fagopyrum esculentum [2]; 10, 20 mmol/kg soil, contrast section 2043 mg/kg): high addition effect
addition effect on lead concentration in leaves (Fagopyrum esculentum [2]; 10, 20 mmol/kg soil, contrast section 7971 mg/kg): high addition effect
Leaf dry weight (Fagopyrum esculentum [2]; chelating agent 1 mmol/kg soil): 0.9799 g/plant
Stem dry weight (Fagopyrum esculentum [2]; chelating agent 1 mmol/kg soil): 1.7240 g/plant
Stem lead concentration (Fagopyrum esculentum [2]; chelating agent 1 mmol/kg soil): 1791 mg/kg
Terrestrial dry weight (Fagopyrum esculentum [2]; chelating agent 1 mmol/kg soil): 2.7039 g/plant
Terrestrial part lead accumulation amount (Fagopyrum esculentum [2]; chelating agent 1 mmol/kg soil): 0.0106 g/plant
Terrestrial part lead concentration (Fagopyrum esculentum [2]; chelating agent 1 mmol/kg soil): 3926 mg/kg
Leaf lead concentration (Fagopyrum esculentum [2]; chelating agent 1 mmol/kg soil): 7683 mg/kg
Leaf dry weight (Fagopyrum esculentum [2]; chelating agent 5 mmol/kg soil): 1.0307 g/plant
Stem dry weight (Fagopyrum esculentum [2]; chelating agent 5 mmol/kg soil): 2.0750 g/plant
Stem lead concentration (Fagopyrum esculentum [2]; chelating agent 5 mmol/kg soil): 2288 mg/kg
Terrestrial dry weight (Fagopyrum esculentum [2]; chelating agent 5 mmol/kg soil): 3.1057 g/plant
Terrestrial part lead accumulation amount (Fagopyrum esculentum [2]; chelating agent 5 mmol/kg soil): 0.0157 g/plant
Terrestrial part lead concentration (Fagopyrum esculentum [2]; chelating agent 5 mmol/kg soil): 5045 mg/kg
Leaf lead concentration (Fagopyrum esculentum [2]; chelating agent 5 mmol/kg soil): 10595 mg/kg
Leaf dry weight (Fagopyrum esculentum [2]; [8]): 0.9617 g/plant
Stem dry weight (Fagopyrum esculentum [2]; [8]): 1.8899 g/plant
Stem lead concentration (Fagopyrum esculentum [2]; [8]): 3376 mg/kg
Terrestrial dry weight (Fagopyrum esculentum [2]; [8]): 2.8516 g/plant
Terrestrial part lead accumulation amount (Fagopyrum esculentum [2]; [8]): 0.0244 g/plant
Terrestrial part lead concentration (Fagopyrum esculentum [2]; [8]): 8564 mg/kg
Leaf lead concentration (Fagopyrum esculentum [2]; [8]): 18758 mg/kg
Leaf dry weight (Fagopyrum esculentum [2]; [9]): 0.6389 g/plant
Stem dry weight (Fagopyrum esculentum [2]; [9]): 1.4969 g/plant
Stem lead concentration (Fagopyrum esculentum [2]; [9]): 8947 mg/kg
Terrestrial dry weight (Fagopyrum esculentum [2]; [9]): 2.1358 g/plant
Terrestrial part lead accumulation amount (Fagopyrum esculentum [2]; [9]): 0.0328 g/plant
Terrestrial part lead concentration (Fagopyrum esculentum [2]; [9]): 15335 mg/kg
Leaf lead concentration (Fagopyrum esculentum [2]; [9]): 30303 mg/kg
Terrestrial part lead accumulation amount (Fagopyrum esculentum [2]; [10]): 1.59 g/m^2
Terrestrial part lead accumulation amount (Fagopyrum esculentum [2]; [11]): 2.36 g/m^2
Terrestrial part lead accumulation amount (Fagopyrum esculentum [2]; [12]): 3.66 g/m^2
Terrestrial part lead accumulation amount (Fagopyrum esculentum [2]; [13]): 4.92 g/m^2
lead dissolving out ability [3, 14]: high lead dissolving out ability

tetrasodium L-glutamic acid diacetate [GLDA·4Na]
lead dissolving out ability [3, 14]: high lead dissolving out ability
